The record followed here is patent US20230382862A1, “ERG ONCOGENE INHIBITORS” (The Henry M. Jackson Foundation for the Advancement of …, priority 2020, published 2023).

As a reminder, the pIC50 is the negative decadic logarithm of the IC50, by convention in mol/L.

In one assay the test system is HUVEC cells. As to the kind of experiment: Growth of endothelial-derived primary cells (HUVEC). In kind it is cell-based, human. The conditions noted are these: within effective concentration range observed in VCaP, data not shown. The protocol:
(§1) TMPRSS2-ERG fusion positive ERG oncoprotein expressing prostate cancer cell line VCaP, was obtained from the American Tissue Culture Collection (ATCC; Manassas, Va.). The cells were grown in ATCC-recommended cell culture media under cell growth promoting conditions as recommended by the supplier (DMEM media; Gibco, Grand island, NY) supplemented with 10% fetal bovine serum (ATCC; Manassas, Va.). Normal primary endothelial cells, HUVEC-human umbilical vein endothelial cells, were also obtained from ATCC (Endothelial cell media; Cell biologics, Chicago, Ill.) supplemented with 10% FBS) as recommended by the supplier. The passage number of cell lines used in this study ranges from 1 to 6.
(§2) ERG protein is naturally expressed in endothelial cells.

In another assay the test system is VCaP cells. The assay is described as follows: VCaP cell growth inhibition / cell viability (Cell Titer-Glo). In kind it is cell-based. The conditions noted are these: Homo sapiens, 96 h. A general note: ATP-based viability assays read luminescence as a measure of living cells.
The target of another assay is T1, RIOK2 (Homo sapiens, UniProt Q9BVS4).
T1 construct: endogenous in cells; host or cells: HUVEC primary endothelial cells (ATCC)
T1 sequence (Q9BVS4 whole entry): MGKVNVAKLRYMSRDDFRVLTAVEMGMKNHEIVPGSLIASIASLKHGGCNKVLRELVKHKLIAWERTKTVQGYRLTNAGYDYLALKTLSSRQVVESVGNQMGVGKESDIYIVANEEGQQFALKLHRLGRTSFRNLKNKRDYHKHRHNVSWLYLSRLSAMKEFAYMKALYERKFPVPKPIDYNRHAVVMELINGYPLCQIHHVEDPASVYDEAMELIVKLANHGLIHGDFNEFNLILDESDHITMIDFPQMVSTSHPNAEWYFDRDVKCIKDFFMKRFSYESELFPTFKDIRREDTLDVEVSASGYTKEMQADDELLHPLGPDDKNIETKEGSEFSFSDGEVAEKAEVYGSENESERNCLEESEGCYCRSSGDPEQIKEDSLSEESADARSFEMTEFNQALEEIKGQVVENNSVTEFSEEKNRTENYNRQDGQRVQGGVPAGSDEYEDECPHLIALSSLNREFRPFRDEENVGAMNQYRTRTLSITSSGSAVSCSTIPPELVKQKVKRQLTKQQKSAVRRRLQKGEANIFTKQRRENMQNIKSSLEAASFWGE
As to the kind of experiment: RIOK2 levels in endothelial-derived primary cells (HUVEC). The following applies: within effective concentration range observed in VCaP, data not shown. In kind it is cell-based. The protocol: as §1, §2

pIC50: −log10 of the molar value.

Description for VCaP cells: TMPRSS2-ERG fusion positive ERG oncoprotein expressing prostate cancer cell line VCaP, was obtained from the American Tissue Culture Collection (ATCC; Manassas, Va.). The cells were grown in ATCC-recommended cell culture media under cell growth promoting conditions as recommended by the supplier (DMEM media; Gibco, Grand island, NY) supplemented with 10% fetal bovine serum (ATCC; Manassas, Va.). […] The passage number of cell lines used in this study ranges from 1 to 6.
48 hours following plating of cells, the appropriate test compound is added to each well of the tissue culture dish at concentrations (0, 0.001, 0.005, 0.01, 0.05, 0.10, 0.15, 0.2, 0.25, 0.3, 0.35, 0.4) μM/per well). The medium was replenished every 24 hours with fresh growth medium containing the same concentration of the same test compound for indicated period of the cell growth inhibition assay for 96 hours. At the end of the treatment the cells were analyzed for viability by labeling for ATPase activity. Cell growth were calculated by measuring bioluminescence using Cell Glow ATPase assay with Cell Titer-Glo luminescent cell viability assay (Promega, Madison, Wis.) detected by the HT Envision System (PerkinElmer, Waltham, Mass.). The average viable cell numbers of each concentration in triplicates were used to calculate the IC50 of each compound with the GraphPad Prism 7 software. […]

Consider `CN(C)c1ccc(N=Nc2ccccn2)c(O)c1.CS(=O)(=O)O` [Compound 2, 5-(dimethylamino)-2-(pyridin-2-yldiazenyl)phenol, methanesulfonic acid (1:1)], for which the “effect on growth of endothelial-derived primary cells” value in the assay on HUVEC cells was “did not effect”. This compound had a pIC50 with VCaP cells of 7.05. At RIOK2, the “effect on RIOK2 levels of endothelial-derived primary cells” value was “did not effect”.
